# Several values for one entry are separate records, joined by “and”; a condition that tells them apart may be missing. Identical values can stand only once.
# Assays:
# A/PR/8/34 virus [1] = format: cell-based; details: 12.5 μM
# A/PR/8/34 virus [2] = assay: Influenza A viral growth assay (viral titer of culture media); format: cell-based, influenza A H1N1 virus; parameters: viral titer of culture media, individual replicate / viral titer of culture media, ave: unit not given here; details: A/PR/8/34 (PR8), 12.5uM, average of #1-3 exp (n=9)
# [3] = system: NAD(P)H quinone oxidoreductase 1 (Nqo1); assay: RT-qPCR of Nqo1 mRNA in MDCK cells with or without A/PR/8/34 virus; format: cell-based, canine; details: for NQO1 Canis lupus mRNA, ave / NQO1 Canis lupus mRNA, individual replicates: 12.5uM, MDCK, relative to virus - DMSO; for NQO1 Canis lupus mRNA, ave: ave of #1-3 exp; for NQO1 Canis lupus mRNA, individual replicates: replicates 1-3 of #1, #2, #3 exp, listed as Cyclobakuchiol A
# A/PR/8/34 virus [4] = assay: Immunofluorescence staining of viral NP in influenza A virus-infected MDCK cells; details: for NP/DAPI (%) ave: average of 9 wells
# Description: (§1) MDCK cells were seeded on a 96-well plate at 1 × 10^4 cells/well. […] Each mixture was added to the cells at 37°C in the presence of 5% CO2. […] After influenza A viral infection for 24 h, the cells were fixed with 4% paraformaldehyde in phosphate-buffered saline (PBS) for 30 min at 4°C and subsequently permeabilized by the addition of 0.3% Triton X-100 for 20 min at 25°C. A mouse primary antibody was used to detect the NP of A/PR/8/34 or A/WSN/33 viruses (FluA-NP 4F1; SouthernBiotech, AL, USA). Alexa Fluor488-conjugated goat anti-mouse IgG (H + L) antibody (Thermo Fisher Scientific) was used as the secondary antibody. Cell nuclei were then stained using diamidino-2-phenylindole (DAPI) (Thermo Fisher Scientific). Wells were photographed using a fluorescence microscope (BIOREVO BZ-X700; Keyence, Osaka, Japan). The proportion of influenza A NP-positive cells per DAPI-positive cells was calculated based on measurements recorded using BZ-X Analyzer software (Keyence).
# [5] = system: canine interferon-β (Ifn-β); assay: RT-qPCR of Ifn-β mRNA in MDCK cells with or without A/PR/8/34 virus; format: cell-based; details: 12.5uM, relative to virus - DMSO; for MDCK IFN-b mRNA, ave: ave of #1-3 exp; for MDCK IFN-b mRNA, individual replicates: replicates 1-3 of #1, #2, #3 exp, listed as Cyclobakuchiol A
# Nrf2 = Nrf2 reporter assay (dual luciferase system) in MDCK cells; format: cell-based, canine
# Description: An Nrf2 reporter assay based on the dual luciferase system was performed as previously described. The plasmid pNQO1-ARE (antioxidant response element)-Fluc, provided by Yamamoto M., expressed a Firefly luciferase gene driven by Nrf2 activation, while the plasmid pRL-TK-Rluc vector (Promega, CA, USA) expressed a Renilla luciferase gene driven by the herpes simplex viral thymidine kinase promoter as an internal control. MDCK cells were seeded in a 24-well plate at 1 × 10^5 cells/well and transfected with pNQO1-ARE-luc (0.25 μg) and pRL-TK-Rluc (0.25 μg). At 24 h post-transfection, the cells were treated with 12.5 μM cyclobakuchiols A–D in the infection medium at 37°C under 5% CO2. DMSO (0.125%) and 12.5 μM 1 were used as negative and positive controls, respectively. Total RNA was extracted from the MDCK cell lysates after 24 h of incubation. The levels of Firefly and Renilla luciferase mRNAs were analyzed by RT-qPCR and normalized to that of β-actin mRNA.
# A/PR/8/34 virus [6] = assay: RT-qPCR of viral mRNAs (NP, NS1, PA, PB1, PB2, M2) in infected MDCK cells; format: cell-based, influenza A H1N1 virus
# A/WSN/33 virus [7] = assay: Influenza A viral growth assay (viral titer of culture media); format: cell-based, influenza A H1N1 virus; details: A/WSN/33 (WSN), 12.5uM, average of #1-3 exp (n=9)
# A/WSN/33 virus [8] = assay: Immunofluorescence staining of viral NP in influenza A virus-infected MDCK cells; details: WSN
# Description: as §1
# [9] = 24h WB, average of 3 experiments
# [10] = 24h WB, single experiment, listed as cyclo A
# [11] = MDCK cells, PR8 virus, relative to DMSO (about 1), ave of #1-3 exp (9 values)
# [12] = MDCK cells, PR8 virus, relative to DMSO, replicates 1-3 of #1, #2, #3 exp, listed as Cyclobakuchiol A
compound,measurement,setting,value
C=C[C@]1(C)CCC(C(=C)C)C(c2ccc(O)cc2)C1 (stereo in doubt) [cyclobakuchiol A],NP/b-actin ave,A/PR/8/34 virus [1]; [9],0.4278
same,NS1/b-actin ave,A/PR/8/34 virus [1]; [9],0.4825
same,"NP mean (western blot signal intensity, ImageJ)",A/PR/8/34 virus [1]; [10],46.861 and 57.758 and 73.552
same,NP/b-actin,A/PR/8/34 virus [1]; [10],0.5523 and 0.2997 and 0.4315
same,NS1/b-actin,A/PR/8/34 virus [1]; [10],0.4154 and 0.4658 and 0.5663
same,"NS1 mean (western blot signal intensity, ImageJ)",A/PR/8/34 virus [1]; [10],72.823 and 75.793 and 55.326
same,expression level of NP protein compared with the 4 or 5 treatment groups,"A/PR/8/34 virus [1]; 24 h post-infection, Fig 7C",significantly reduced
same,"viral titer of culture media, ave",A/PR/8/34 virus [2]; 12h,31111.1
same,"viral titer of culture media, ave",A/PR/8/34 virus [2]; 48h,28888.9
same,"viral titer of culture media, ave",A/PR/8/34 virus [2]; 72h,20000
same,relative mRNA level of Nqo1 compared with 4- and 5-treated cells,[3],significantly higher
same,"NQO1 Canis lupus mRNA, ave",[3]; virus + (PR8),1.589
same,"NQO1 Canis lupus mRNA, individual replicates",[3]; virus + (PR8),2.006 and 1.48 and 1.365 and 1.506 and 1.318 and 1.456 and 1.551 and 1.721 and 1.896
same,"NQO1 Canis lupus mRNA, ave",[3]; virus -,1.2966
same,"NQO1 Canis lupus mRNA, individual replicates",[3]; virus -,1.091 and 1.486 and 1.24 and 1.353 and 1.444 and 1.092 and 1.099 and 1.4686 and 1.396
same,relative mRNA level of Nqo1 compared with DMSO,"[3]; without A/PR/8/34 virus, 12.5 μM, 24 h",significantly upregulated
same,percentage of influenza A NP-positive cells relative to DMSO,"A/PR/8/34 virus [4]; A/PR/8/34, 3.1 μM, 24 h, Fig 4B",significantly reduced
same,NP/DAPI (%) ave,"A/PR/8/34 virus [4]; A/PR/8/34, 3.13 uM",4.608%
same,NP/DAPI (%) ave,"A/PR/8/34 virus [4]; A/PR/8/34, 6.25 uM",1.65%
same,NP/DAPI (%) ave,"A/PR/8/34 virus [4]; A/PR/8/34, 12.5 uM",1.121%
same,NP (NP-positive cell count),"A/PR/8/34 virus [4]; A/PR/8/34, 12.5 uM, single well, listed as Cyclobaku. A",4 and 2 and 3
same,NP/DAPI (%) ave,"A/PR/8/34 virus [4]; A/PR/8/34, 25 uM",0.8303%
same,NP/DAPI (%),"A/PR/8/34 virus [4]; A/PR/8/34, 25 uM, single well, listed as Cyclobaku. A",2.804% and 0.7843% and 0.5666% and 0.5181% and 1.085% and 0.489% and 0.3145% and 0.3937%
same,IC50,"A/PR/8/34 virus [4]; Influenza A virus, PR/8, MDCK, read-out: half maximal (50%) inhibitory concentration (IC50)",1700 ± 800 nM
same,"MDCK IFN-b mRNA, ave",[5]; virus +,3.338
same,"MDCK IFN-b mRNA, individual replicates",[5]; virus +,0.977 and 7.49 and 3.1238 and 7.575 and 1.945 and 2.0516 and 3.014 and 1.296 and 2.57
same,"MDCK IFN-b mRNA, ave",[5]; virus -,4.43
same,"MDCK IFN-b mRNA, individual replicates",[5]; virus -,0.3432 and 9.774 and 14.2997 and 12.0611 and 0.902 and 0.6358 and 0.8443 and 0.4235 and 0.5869
same,Nrf2 activation (reporter assay) in contrast to DMSO,"Nrf2; 12.5 μM, 24 h, MDCK cells",induced
same,"pNQO1-ARE-Luc NRF2 reporter assay, ave","Nrf2; 12.5uM, relative to DMSO trans+, ave of #1-3 exp",1.46
same,"pNQO1-ARE-Luc NRF2 reporter assay, individual replicates","Nrf2; 12.5uM, relative to DMSO trans+, two values each of #1, #2, #3 exp, listed as Cyclobakuchiol A",1.665 and 1.021 and 1.596 and 1.77 and 1.598 and 1.113
same,reduction in the level of NP mRNA compared with 4 and 5,"A/PR/8/34 virus [6]; 12.5 μM, 24 h, Fig 6A",significantly stronger
same,reduction in the level of PB2 mRNA compared with 5,"A/PR/8/34 virus [6]; 12.5 μM, 24 h, Fig 6E",significantly stronger
same,"PR8 NP gene expression qPCR, ave","A/PR/8/34 virus [6]; MDCK PR8, NP mRNA, relative (DMSO about 1), average of #1-3 exp (n=9)",0.01993
same,"PR8 NP gene expression qPCR, individual replicate","A/PR/8/34 virus [6]; MDCK PR8, NP mRNA, relative (DMSO about 1), replicates of #1-3 exp, listed as Cyclobakuchiol A",0.004781 and 0.02173 and 0.01679 and 0.02307 and 0.03646 and 0.02695 and 0.03647 and 0.007215 and 0.005883
same,"PR8 NS1 gene expression qPCR, ave","A/PR/8/34 virus [6]; MDCK PR8, NS1 mRNA, relative (DMSO about 1), average of #1-3 exp (n=9)",0.01311
same,"PR8 NS1 gene expression qPCR, individual replicate","A/PR/8/34 virus [6]; MDCK PR8, NS1 mRNA, relative (DMSO about 1), replicates of #1-3 exp, listed as Cyclobakuchiol A",0.006023 and 0.01703 and 0.01038 and 0.0146 and 0.02282 and 0.01557 and 0.01791 and 0.008546 and 0.005121
same,"PR8 PA gene expression qPCR, ave","A/PR/8/34 virus [6]; MDCK PR8, PA mRNA, relative (DMSO about 1), average of #1-3 exp (n=9)",0.01493
same,"PR8 PA gene expression qPCR, individual replicate","A/PR/8/34 virus [6]; MDCK PR8, PA mRNA, relative (DMSO about 1), replicates of #1-3 exp, listed as Cyclobakuchiol A",0.007746 and 0.01438 and 0.00964 and 0.01502 and 0.02904 and 0.01721 and 0.0228 and 0.01256 and 0.005972
same,"PR8 M2 gene expression qPCR, ave",A/PR/8/34 virus [6]; [11],0.01356
same,"PR8 PB1 gene expression qPCR, ave",A/PR/8/34 virus [6]; [11],0.01089
same,"PR8 PB2 gene expression qPCR, ave",A/PR/8/34 virus [6]; [11],0.01486
same,"PR8 M2 gene expression qPCR, individual replicates",A/PR/8/34 virus [6]; [12],0.006283 and 0.01574 and 0.01119 and 0.01541 and 0.02852 and 0.01303 and 0.01716 and 0.01044 and 0.004303
same,"PR8 PB1 gene expression qPCR, individual replicates",A/PR/8/34 virus [6]; [12],0.005833 and 0.007225 and 0.006699 and 0.007236 and 0.02285 and 0.01622 and 0.02095 and 0.006264 and 0.00475
same,"PR8 PB2 gene expression qPCR, individual replicates",A/PR/8/34 virus [6]; [12],0.006621 and 0.01468 and 0.01232 and 0.01635 and 0.03014 and 0.01618 and 0.02349 and 0.009706 and 0.004275
same,"viral titer of culture media, ave",A/WSN/33 virus [7]; 12h,10300
same,"viral titer of culture media, ave",A/WSN/33 virus [7]; 24h,22944444
same,"viral titer of culture media, ave",A/WSN/33 virus [7]; 48h,177111111
same,"viral titer of culture media, ave",A/WSN/33 virus [7]; 72h,106555556
same,NP/DAPI (%) ave,"A/WSN/33 virus [8]; 3.13uM, ave of 9 values (3 exp)",33.269%
same,NP/DAPI (%) ave,"A/WSN/33 virus [8]; 6.25uM, ave of 9 values (3 exp)",28.3611%
same,NP/DAPI (%) ave,"A/WSN/33 virus [8]; 12.5uM, ave of 9 values (3 exp)",27.0591%
same,NP/DAPI (%) ave,"A/WSN/33 virus [8]; 25uM, ave of 9 values (3 exp)",29.2459%
same,NP/DAPI (%) ave,"A/WSN/33 virus [8]; ave summary, 3.13%",33.269%
same,NP/DAPI (%) ave,"A/WSN/33 virus [8]; ave summary, 6.25%",28.3611%
same,NP/DAPI (%) ave,"A/WSN/33 virus [8]; ave summary, 12.50%",27.0591%
same,NP/DAPI (%) ave,"A/WSN/33 virus [8]; ave summary, 25%",29.2459%
